Read-outs that look alike come from different tables or passages of the source.
Assays:
JAM = conditions: ID37 data from Ying Dong et al. submitted for publication; cited from earlier work
Rhodamine 123 uptake = conditions: cells treated with cisplatin; cited from earlier work
CH1-cisR [1] = conditions: data from Kelland et al., 1992; cited from earlier work
CI-80-13S = conditions: ID37 data from Ying Dong et al. submitted for publication; cited from earlier work
SKOV-3 [2] = conditions: data from McKeage et al., 1994; cited from earlier work
HeLa-S1a = conditions: ID37 data from Ying Dong et al. submitted for publication; cited from earlier work
CH1 [3] = conditions: data from Kelland et al., 1992; cited from earlier work
41M-cisR [4] = conditions: data from Kelland et al., 1992; cited from earlier work
41M [5] = conditions: data from Kelland et al., 1992; cited from earlier work
HeLa = conditions: ID37 data from Ying Dong et al. submitted for publication; cited from earlier work
[6] = system: mitochondria of carcinoma derived cells; conditions: carcinoma derived versus untransformed cells; cited from earlier work
[7] = system: 41M, 41M-cisR, SKOV-3, CH1, CH1-cisR; assay: growth inhibition of cisplatin-sensitive and -resistant ovarian cancer cell lines (Table 2, FIG. 5); assay type: cell-based, human; conditions: 41M/41M-cisR and CH1/CH1-cisR pairs
From the text: (§1) The sensitive CH1 cell line was established from a patient with drug-sensitive disease and its resistant variant (CH1-cisR) was generated by prolonged in vitro exposure to cisplatin during which it acquired more efficient DNA repair as described in Kelland et al., 1992, Cancer Research 52 3857-3864. The sensitive 41M cell line was also established from a patient with a sensitive tumor and its resistant variant (41M-cisR) was generated in the same way but acquired decreased uptake across the cell membrane (Kelland et al., 1992, supra). The intrinsically-resistant SKOV-3 ovarian carcinoma cell line has high glutathione levels as described in Mistry et al., 1991, Brit. J. Cancer 64 215-220 and reduced levels of bi-functional cisplatin-DNA lesions as described in McKeage et al., 1994, Brit. J. Cancer 69 1-7. The characteristics of the cell line pairs CH1/CH1 cisR, 41M/41McisR and 41M/SKOV3 are described in Table 3.
(§2) The cytotoxicity assay used sulforhodamine B which stains the basic amino acids. Cells (5000 or 2500 for SKOV-3) were seeded into 96 well microtitre plates (Linbro, Flow Laboratories Inc., USA) in 0.1 ml of medium. After an overnight incubation, the metal phosphine compounds were dissolved in 0.9% NaCl or ethanol and diluted with medium, were added at concentrations ranging from 0.005 to 50 μM to quadruplicate wells. After 96 hrs incubation, the medium was removed and cells were fixed in 0.2 ml of cold 10% (w/v) trichloroacetic acid (May & Baker Ltd., Dagenham, England) for 30 mins at 4° C. The plates were washed five times with tap water. Then 0.1 ml of 0.4% (w/v) sulforhodamine B (Sigma Chemical Co., St. Louis, USA) dissolved in 1% acetic acid (Ajax Chemicals, Australia) was added to the wells and left to stand at room temperature for 15 mins. The plates were then washed five times with 1% acetic acid and left to dry overnight. The next morning, 0.1 ml of 10 mM Tris buffer (Sigma Chemical Co., St. Louis, USA) was then added to each plate to solubilise the dye. Absorbance was read at a wavelength of 570 nm using a 96 well plate reader Dynatech MR 5000 plate reader. Absorbance of treatment cells was expressed as a percentage of positive (drug-free) controls. The results were plotted as percentage growth versus drug concentration. The drug concentration resulting in a 50% growth inhibition was termed the IC50. The passage numbers used for the cytotoxicity assay from each cell line were, CH1 passages 50-58, CH1 cis-R passages 77-83, 41M passages 50-63, 41M cisR 81-92 and SKOV-3 passages 106-128.

CH1 [8] = assay: cytotoxicity assay, sulforhodamine B; assay type: cell-based, human; conditions: Homo sapiens, 96 hrs, mean ± SD or individual values when n<3
Description: (§3) In Table 2, reference is made to cell lines 41M, 41M-cisR, SKOV-3, CH1 and CH1-cisR.
(§4) J. Cancer 69 1-7. The characteristics of the cell line pairs CH1/CH1 cisR, 41M/41McisR and 41M/SKOV3 are described in Table 3.
as §2, with “concentration.” for “concentration. The drug concentration resulting in a 50% growth inhibition was termed the IC50. The passage numbers used for the cytotoxicity assay from each cell line were, CH1 passages 50-58, CH1 cis-R passages 77-83, 41M passages 50-63, 41M cisR 81-92 and SKOV-3 passages 106-128.”

41M [9] = assay: cytotoxicity assay, sulforhodamine B; assay type: cell-based, human; conditions: Homo sapiens, 96 hrs, mean ± SD or individual values when n<3
Description: as §3, §4
as §2, with “concentration.” for “concentration. The drug concentration resulting in a 50% growth inhibition was termed the IC50. The passage numbers used for the cytotoxicity assay from each cell line were, CH1 passages 50-58, CH1 cis-R passages 77-83, 41M passages 50-63, 41M cisR 81-92 and SKOV-3 passages 106-128.”

CH1-cisR [10] = assay: cytotoxicity assay, sulforhodamine B; assay type: cell-based, human; conditions: Homo sapiens, CH1cisR, 96 hrs, mean ± SD or individual values when n<3
Description: as §3, §4
as §2, with “concentration.” for “concentration. The drug concentration resulting in a 50% growth inhibition was termed the IC50. The passage numbers used for the cytotoxicity assay from each cell line were, CH1 passages 50-58, CH1 cis-R passages 77-83, 41M passages 50-63, 41M cisR 81-92 and SKOV-3 passages 106-128.”

SKOV-3 [11] = assay: cytotoxicity assay, sulforhodamine B; assay type: cell-based, human; conditions: Homo sapiens, SK-OV-3, 96 hrs, mean ± SD or individual values when n<3
Description: as §3, §4
as §2, with “concentration.” for “concentration. The drug concentration resulting in a 50% growth inhibition was termed the IC50. The passage numbers used for the cytotoxicity assay from each cell line were, CH1 passages 50-58, CH1 cis-R passages 77-83, 41M passages 50-63, 41M cisR 81-92 and SKOV-3 passages 106-128.”

41M-cisR [12] = assay: cytotoxicity assay, sulforhodamine B; assay type: cell-based, human; conditions: Homo sapiens, 41McisR, 96 hrs, mean ± SD or individual values when n<3
Description: as §3, §4
as §2, with “concentration.” for “concentration. The drug concentration resulting in a 50% growth inhibition was termed the IC50. The passage numbers used for the cytotoxicity assay from each cell line were, CH1 passages 50-58, CH1 cis-R passages 77-83, 41M passages 50-63, 41M cisR 81-92 and SKOV-3 passages 106-128.”

[13] = from Chen in Cancer Cells 1; cited from earlier work
tumour models in mice = conditions: literature; mice; cited from earlier work
human tumour cell lines = assay: selectivity of cytotoxicity over all cell lines evaluated (Tables 1 and 2); assay type: cell-based
From the text: The origins of the human melanoma cell line MM96 has been described in Whitehead et al., 1973, Pigment Cell 1 383-389. The cell line JAM is described in Ward et al., 1987, Cancer Res. 47 2662-2667. The origin of the ovarian tumour line CI-80-13S has been described in Bertoncello et al., 1985, Aust. J. Exp. Biol. Med. Sci. 63 241-243. The origin of the cervical carcinoma cell line HeLa has been described in Maynard et al., 1986, Cancer Res. 46 5009-5093. The subclone HeLa-S1a was derived by stably transfecting HeLa with PAI-2 cDNA described in Schleuning et al., 1987, Mol. Cell. Biol. 7 4564-4567 in the sense orientation under the control of the cyto-megalovirus (CMV) promoter. The stably infected subclone was isolated following G418 selection and expression of the PAI-2 transgene characterised by immunoblot analysis and quantitated by ELISA. All of these cell lines have been used before for carrying out cell survival assays referred to in FIGS. 1-4. Cells were cultured at 37° in 5% CO2 /air in Roswell Park Memorial Institute medium 1640 containing 5% foetal calf serum, 100 μg/ml streptomycin, 100 IU/ml penicillin, 1 mM pyruvate, 50 μM nicotinamide and 3 mM HEPES.
Cells were seeded in microtitre plates (lowest number for fastest growing cells: 1000 HeLa, 2000 MM96, […] CI-80-13S cells per 6 mm well in 100 μl), normally but not necessarily allowed to attach overnight, then 5 dilutions of the drug were added to duplicate wells. After an overnight incubation to equilibrate the pH, the lids were quickly taped around the edge to prevent evaporation. The plates were incubated for 5-7 days, until the controls were nearly confluent. Cell growth/morphology was scored at each dose visually (inverted microscope). The medium was then replaced by 50 μl fresh medium containing 2 u/Ci/ml [methyl-3H]-thymidine (5 Ci/mmol; Radiochemical Centre, Amersham, Bucks., U.K.) and incubated for 2-4 hr. The cells were washed with PBS (0.1 M NaCl, 50 mM phosphate, pH 7.2), detached with 100 μl of PBS containing 0.2 mg/ml trypsin and 10 mM EDTA, and washed onto a glass fibre GF/a filter mat with water using a cell harvester. Later, wells were checked under the microscope to ensure complete detachment and washout. Radioactivity was determined in an LKB Beta Plate counter and the results plotted as log % control cpm versus dose. The ID50 (dose required to give 50% survival) was interpolated from this survival curve.
as §1
The cytotoxicity assay used sulforhodamine B which stains the basic amino acids. Cells (5000 or 2500 for SKOV-3) were seeded into 96 well microtitre plates (Linbro, Flow Laboratories Inc., USA) in 0.1 ml of medium. After an overnight incubation, the metal phosphine compounds were dissolved in 0.9% NaCl or ethanol and diluted with medium, were added at concentrations ranging from 0.005 to 50 μM to quadruplicate wells. After 96 hrs incubation, the medium was removed and cells were fixed in 0.2 ml of cold 10% (w/v) trichloroacetic acid (May & Baker Ltd., Dagenham, England) for 30 mins at 4° C. The plates were washed five times with tap water. […]

DNA in tumour cells = conditions: cited from earlier work
[14] = system: mitochondrial membrane / oxidative phosphorylation; conditions: cited from earlier work
Beagle dogs = conditions: cited from earlier work
[15] = attributed to lipophilic cationic properties; cited from earlier work

## N.N.[Cl][Pt][Cl] [Cisplatin]
JAM
  ID37: 0.83 ± 0.3 µM
Rhodamine 123 uptake
  Rhodamine 123 uptake: Rhodamine 123 uptake increases
CH1-cisR [1]
  IC50: 710 ± 200 nM
CI-80-13S
  ID37: 4.17 ± 0.5 µM
SKOV-3 [2]
  IC50: 2100 nM
HeLa-S1a
  ID37: 0.62 ± 0.08 µM
CH1 [3]
  IC50: 110 ± 10 nM
41M-cisR [4]
  IC50: 1200 ± 400 nM
41M [5]
  IC50: 260 ± 100 nM
HeLa
  ID37: 0.29 ± 0.04 µM

## CCN(CC)c1ccc2c(-c3ccccc3C(=O)O)c3ccc(=[N+](CC)CC)cc-3oc2c1 [Rhodamine, reference compound]
JAM
  ID37: 0.90 ± 0.03 µM
[6]
  accumulation in mitochondria: accumulate in the mitochondria of most carcinoma derived cells more rapidly than in most untransformed cells
[7]
  sensitivity of cisplatin resistant cells versus non-resistant cells: the cisplatin resistant cells are more sensitive to Rhodamine than the nonresistant cells
CI-80-13S
  ID37: 0.105 ± 0.026 µM
HeLa-S1a
  ID37: 0.58 ± 0.08 µM
CH1 [8]
  IC50: 900 nM
41M [9]
  IC50: 3000 nM
CH1-cisR [10]
  IC50: 500 nM
SKOV-3 [11]
  IC50: 1000 nM
41M-cisR [12]
  IC50: 1000 nM
[13]
  partition co-efficient: 0.34
HeLa
  ID37: 2.73 ± 0.28 µM

## [Au+].[Cl-].c1ccc(P(CCP(c2ccccc2)c2ccccc2)c2ccccc2)cc1.c1ccc(P(CCP(c2ccccc2)c2ccccc2)c2ccccc2)cc1 [[Au(dppe)2]Cl]
JAM
  ID37: 0.73 ± 0.15 µM
Tumour models in mice
  antitumour activity: good antitumour activity
Human tumour cell lines; Tables 1 and 2
  degree of selectivity: the least selectivity
Human tumour cell lines; nine cell-lines tested / all evaluated
  number of cell lines against which cytotoxic: cytotoxic to all the cell lines evaluated
CI-80-13S
  ID37: 0.20 ± 0.03 µM
HeLa-S1a
  ID37: 0.073 ± 0.005 µM
DNA in tumour cells
  DNA damage: produced DNA-single strand breaks and DNA-protein crosslinks in tumour cells
[14]
  effect on mitochondrial function: uncouples oxidative phosphorylation via dissipation of the membrane potential
Beagle dogs
  toxicities in preclinical trials: severe cardiac, hepatic and vascular toxicities
[15]
  hepatotoxicity: severe and unacceptable hepatotoxicity
HeLa
  ID37: 0.95 ± 0.13 µM

— patent US6218378A, “Anti-tumor agents comprising pyridyl-substituted metal-diphosphine complex” (priority 1994, dated 2001)
